Measured values published in patent US20120251495A1, “PTERIN BASED THERAPIES FOR INFLAMMATORY CONDITIONS” (priority 2008, published 2012).

How the values were obtained:
Format in all cases: in vivo
[1] = test system: hepatitis B core antigen (HBcAg); test: Liver HBcAg assay in HBV transgenic mice; details: 10 mg/(kg d)
Protocol: (§1) Experimental design. DCP was administered per os, once daily for 14 days to randomly assigned HBV transgenic mice at 23, 7.3, and 2.3 mg/(kg d). ADV was used as a positive control at 10 mg/(kg d) using the same treatment schedule and vehicle (0.4% CMC). On day 14, mice were euthanized to collect serum and liver samples to perform liver HBV DNA, liver core and serum HBe assays, serum cytokine/chemokine profiles, and IDO metabolite assays.
Liver HBcAg assay. Liver biopsies were processed for detection of hepatitis B core antigen (HBcAg) (Motley J D, Motter N E, Taro B, Lay M & Fairman J. Efficacy of cationic lipid-DNA complexes (CLDC) on hepatitis B virus in transgenic mice. Antiviral Res 2008; 79:71-79). Three different parameters were obtained from each tissue section. […] The first two parameters were obtained by counting cells surrounding central veins as follows: the total number of cells, the number of cells with stained nuclei, and the number of cells with stained cytoplasms. The identities of the samples were blinded to person counting. The stained nuclei counts or the stained cytoplasm counts were divided by the total cells. Three central vein areas were counted for each slide sample. For the third parameter, a field not in a central vein area was counted for the total number of stained nuclei. One-quarter of the field was counted. Three such fields were counted per liver section. The identity of the samples was blinded to the person reading the slides.

HBe antigen = test: Sera HBeAg ELISA in HBV transgenic mice; details: females; 10 mg/(kg d)
Protocol: as §1
Sera HBeAg. Whole blood samples were obtained during necropsy by cardiac puncture, and processed for an HBeAg-specific ELISA (International Immuno Diagnostics, Foster City Calif.) (Money J D, Motter N E, Taro B, Lay M & Fairman J. Efficacy of cationic lipid-DNA complexes (CLDC) on hepatitis B virus in transgenic mice. Antiviral Res 2008; 79:71-79). Using the known PEI (Paul Ehrlich Institute) units for the calibrator, PEI units were formulated for the serial dilutions of the positive serum. A graph was generated, and extrapolation was used to assign a PEI unit value for each sample.

hepatitis B virus (HBV) [2] = test: Liver HBV DNA by Southern blot hybridization in HBV transgenic mice; details: 10 mg/(kg d)
Text: Animals. Homozygous adult female and male transgenic HBV mice were used (20.6±2.8 g). The mice were originally obtained from Dr. Frank Chisari (Scripps Research Institute, La Jolla, Calif.) (Guidotti L G, Matzke B, Schaller H & Chisari F V. High-level hepatitis B virus replication in transgenic mice. J Virol 1995; 69:6158-6169) and were subsequently raised in the Biosafety Level 3 (BL-3) area of the AAALAC-accredited USU Laboratory Animal Research Center (LARC). The animals were derived from founder 1.3.32 (Guidotti L G, Matzke B, Schaller H & Chisari F V. High-level hepatitis B virus replication in transgenic mice. J Virol 1995; 69:6158-6169). This study was conducted in accordance with the approval of the Institutional Animal Care and Use Committee of Utah State University.
as §1
Liver HBV DNA assays. Southern blot hybridization and quantitative PCR (qPCR) were performed on liver tissues (Morrey J D, Motter N E, Tam B, Lay M & Fairman J. Efficacy of cationic lipid-DNA complexes (CLDC) on hepatitis B virus in transgenic mice. Antiviral Res 2008; 79:71-79). For Southern blot hybridization, the ratio of the viral DNA bands to the transgene band was used to determine the concentration of viral DNA per host DNA. This calculation was based upon the knowledge that there were 1.3 copies of the transgene present per host cell with this line of transgenic mice. The transgene was used as an internal indicator to calculate the pg of HBV DNA per μg of homozygous cellular host DNA. For qPCR, the assay was run with a series of 10-fold dilutions of pooled liver DNA from HBV transgenic mice to obtain a standard curve. Mean C(t) values were obtained for duplicates of each sample. The mean C(t) values of each sample were used to obtain the log relative DNA values using a formula of the fit line of the standard curve.

hepatitis B virus (HBV) [3] = test: Liver HBV DNA by quantitative PCR in HBV transgenic mice; details: female HBV mice; 10 mg/(kg d), per os 14 days

SMILES: CC(C)(C)C(=O)OCOP(=O)(COCCn1cnc2c(N)ncnc21)OCOC(=O)C(C)(C)C [Adefovir dipivoxil, adefovir dipivoxil, reference compound]
- HBcAg Stained nuclei/total, Female levels (mean ± SEM) ([1]; female): 27.7 ± 3.0
- HBcAg Stained nuclei/total, Male levels (mean ± SEM) ([1]; male): 14.1 ± 3.5
- HBe antigen (ELISA) versus controls (HBe antigen): significant increase
- Liver HBV DNA (Southern), Female levels (mean ± SEM) (hepatitis B virus (HBV) [2]; female): 3.5 ± 0.55 pg/µg
- Liver HBV DNA (Southern), Male levels (mean ± SEM) (hepatitis B virus (HBV) [2]; male): 1.5 ± 0.37 pg/µg
- Log HBV DNA (PCR) versus controls (hepatitis B virus (HBV) [3]): significant treatment decreases
